Results as given in paper PMC7044277 (Nature Communications, 2020).
“And” between values parts separate entries of the source, which are not always exact repeats. Equal entries are not always repeated.

What was measured:
Type in all cases: cell-based
[1] = molecular target: T1, 320 non-olfactory GPCRs (Homo sapiens, UniProt P13945)
T1 construct: expressed in transfected cells; host or cells: HTLA cells

[2] = molecular target: T2, 320 non-olfactory GPCRs (Homo sapiens, UniProt P23945)
T2 construct: expressed in transfected cells; host or cells: HTLA cells

[3] = molecular target: 320 non-olfactory GPCRs (Homo sapiens, UniProt P25090)
[4] = molecular target: T3, 320 non-olfactory GPCRs (Homo sapiens, UniProt Q86SQ4)
T3 construct: expressed in transfected cells; host or cells: HTLA cells
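Further: compound tested at 1 µM final concentration.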

T3 sequence (Q86SQ4 38-1221): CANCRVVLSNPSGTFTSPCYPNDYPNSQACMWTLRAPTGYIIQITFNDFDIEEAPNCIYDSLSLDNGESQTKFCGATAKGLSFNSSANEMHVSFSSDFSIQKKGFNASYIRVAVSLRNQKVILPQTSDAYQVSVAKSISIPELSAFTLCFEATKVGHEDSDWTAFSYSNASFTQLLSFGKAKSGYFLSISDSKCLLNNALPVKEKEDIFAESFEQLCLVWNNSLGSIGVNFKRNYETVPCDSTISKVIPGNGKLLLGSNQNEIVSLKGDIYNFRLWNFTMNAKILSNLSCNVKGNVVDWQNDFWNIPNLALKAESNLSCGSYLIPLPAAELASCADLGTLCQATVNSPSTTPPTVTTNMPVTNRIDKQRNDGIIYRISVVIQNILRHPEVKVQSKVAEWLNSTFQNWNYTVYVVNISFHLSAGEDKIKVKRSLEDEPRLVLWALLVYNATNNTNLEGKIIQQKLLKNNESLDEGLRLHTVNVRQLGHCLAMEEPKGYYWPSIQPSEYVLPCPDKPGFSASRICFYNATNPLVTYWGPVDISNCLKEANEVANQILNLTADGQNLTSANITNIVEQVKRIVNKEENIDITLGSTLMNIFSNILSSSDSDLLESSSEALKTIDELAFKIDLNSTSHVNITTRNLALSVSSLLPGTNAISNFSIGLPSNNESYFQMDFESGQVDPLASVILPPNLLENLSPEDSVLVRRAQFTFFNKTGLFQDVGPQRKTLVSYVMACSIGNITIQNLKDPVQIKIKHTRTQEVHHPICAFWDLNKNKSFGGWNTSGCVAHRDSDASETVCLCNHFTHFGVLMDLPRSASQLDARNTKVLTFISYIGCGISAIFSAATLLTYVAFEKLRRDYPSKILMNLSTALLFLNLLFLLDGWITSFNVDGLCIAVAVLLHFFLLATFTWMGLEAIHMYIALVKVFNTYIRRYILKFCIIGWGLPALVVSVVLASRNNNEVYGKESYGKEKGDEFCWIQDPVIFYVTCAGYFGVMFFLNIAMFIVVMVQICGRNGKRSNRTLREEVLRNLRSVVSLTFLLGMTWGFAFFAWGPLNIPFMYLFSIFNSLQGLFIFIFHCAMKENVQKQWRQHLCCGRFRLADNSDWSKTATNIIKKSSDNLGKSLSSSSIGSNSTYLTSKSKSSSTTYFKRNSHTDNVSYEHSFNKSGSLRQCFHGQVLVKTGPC
T2 sequence (P23945 18-695): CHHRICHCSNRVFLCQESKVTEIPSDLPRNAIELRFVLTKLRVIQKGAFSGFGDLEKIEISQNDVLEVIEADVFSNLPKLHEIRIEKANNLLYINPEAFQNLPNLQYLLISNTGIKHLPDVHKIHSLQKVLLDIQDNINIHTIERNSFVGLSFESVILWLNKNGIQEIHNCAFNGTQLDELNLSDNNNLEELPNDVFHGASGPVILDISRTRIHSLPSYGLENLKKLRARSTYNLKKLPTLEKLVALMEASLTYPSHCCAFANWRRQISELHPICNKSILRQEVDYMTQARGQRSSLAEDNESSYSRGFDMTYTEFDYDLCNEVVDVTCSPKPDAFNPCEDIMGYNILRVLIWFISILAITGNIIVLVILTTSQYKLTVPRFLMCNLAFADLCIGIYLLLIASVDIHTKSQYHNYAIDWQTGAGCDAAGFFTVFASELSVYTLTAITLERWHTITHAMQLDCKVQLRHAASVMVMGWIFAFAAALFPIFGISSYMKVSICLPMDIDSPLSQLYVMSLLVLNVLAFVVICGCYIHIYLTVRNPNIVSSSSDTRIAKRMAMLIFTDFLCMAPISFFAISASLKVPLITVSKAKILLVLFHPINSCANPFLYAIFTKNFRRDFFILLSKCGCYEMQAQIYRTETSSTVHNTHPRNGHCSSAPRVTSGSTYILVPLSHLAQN
320 non-olfactory GPCRs (Homo sapiens, UniProt P25090), sequence (P25090 whole entry): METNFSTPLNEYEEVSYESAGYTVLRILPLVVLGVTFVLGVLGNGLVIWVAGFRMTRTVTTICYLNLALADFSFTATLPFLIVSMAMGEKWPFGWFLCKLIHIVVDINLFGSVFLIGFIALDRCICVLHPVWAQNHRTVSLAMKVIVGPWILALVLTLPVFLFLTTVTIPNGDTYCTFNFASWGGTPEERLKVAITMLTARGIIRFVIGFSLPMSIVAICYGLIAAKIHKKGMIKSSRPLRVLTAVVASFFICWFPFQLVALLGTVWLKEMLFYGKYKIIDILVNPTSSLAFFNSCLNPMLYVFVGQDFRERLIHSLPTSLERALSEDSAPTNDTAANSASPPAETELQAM
T1 sequence (P13945 whole entry): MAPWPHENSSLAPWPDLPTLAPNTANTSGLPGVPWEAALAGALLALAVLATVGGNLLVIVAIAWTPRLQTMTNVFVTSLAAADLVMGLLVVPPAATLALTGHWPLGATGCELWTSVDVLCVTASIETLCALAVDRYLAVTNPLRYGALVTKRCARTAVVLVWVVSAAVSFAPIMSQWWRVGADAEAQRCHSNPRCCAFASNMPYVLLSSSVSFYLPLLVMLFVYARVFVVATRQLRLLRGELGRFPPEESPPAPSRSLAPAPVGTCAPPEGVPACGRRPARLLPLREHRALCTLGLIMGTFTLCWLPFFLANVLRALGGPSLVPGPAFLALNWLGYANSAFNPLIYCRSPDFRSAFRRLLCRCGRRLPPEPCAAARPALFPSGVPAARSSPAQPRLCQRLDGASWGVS

Structure (SMILES): CCOc1cccc2cc(C(C)NCC3(O)CCCCC3)oc12 (stereo not shown) [O4LE6]
- Fold of Basal [1]: 1.471 and 1.539 and 1.208 and 0.8362
- Fold of Basal [2]: 0.5729 and 0.6139 and 0.617 and 0.5943
- Fold of Basal [3]: 1.561 and 1.917 and 2.561 and 1.97
- Fold of Basal [4]: 0.5649 and 0.8908 and 0.7066 and 0.464
